For the experiment, the system named is CD2F1 mice, L1210 leukemia ip, survival T/C. Description: NCI In Vivo Anticancer Drug Screen. Data for tumor model L1210 Leukemia (intraperitoneal) in CD2F1 (CDF1) mice. The following applies: higher = longer survival. The method, boiled down: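 Antitumor effect is scored in animals hosting a serially transplanted tumor. Values compare compound-dosed animals against vehicle-only controls as a simple quotient.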

[1] abbreviates: endpoint: mean survival time, dose: 100.0 mg/kg/injection, schedule: Q01DX009 (ip), vehicle: saline with Tween-80.
[2] abbreviates: endpoint: mean survival time, dose: 100.0 mg/kg/injection, schedule: Q04DX003 (ip), vehicle: saline with Tween-80.
The mark [3] stands for this setting: endpoint: mean survival time, dose: 200.0 mg/kg/injection, schedule: Q01DX009 (ip), vehicle: saline with Tween-80.
[4] abbreviates: endpoint: mean survival time, dose: 200.0 mg/kg/injection, schedule: Q04DX003 (ip), vehicle: saline with Tween-80.
Setting [5] is: endpoint: mean survival time, dose: 400.0 mg/kg/injection, schedule: Q04DX003 (ip), vehicle: saline with Tween-80.

SMILES strings stand for the structures. “And” between values parts separate entries of the source, which are not always exact repeats. Equal entries are not always repeated. Toxic doses and inconclusive results are not listed.

On to `O=C1C=CC(=O)C(Br)C1Br` (stereo unspecified), for which the T/C by setting is: (endpoint: mean survival time, dose: 37.5 mg/kg/injection, schedule: Q01DX009 (ip), vehicle: saline) 93 % of control; (endpoint: mean survival time, dose: 37.5 mg/kg/injection, schedule: Q04DX003 (ip), vehicle: saline) 95 % of control; (endpoint: mean survival time, dose: 75.0 mg/kg/injection, schedule: Q01DX001 (ip), vehicle: saline) 97 % of control; (endpoint: mean survival time, dose: 75.0 mg/kg/injection, schedule: Q01DX009 (ip), vehicle: saline) 93 % of control; (endpoint: mean survival time, dose: 75.0 mg/kg/injection, schedule: Q04DX003 (ip), vehicle: saline) 103 % of control; (endpoint: mean survival time, dose: 150.0 mg/kg/injection, schedule: Q01DX001 (ip), vehicle: saline) 101 % of control. Moreover, the T/C was 94 % of control (endpoint: mean survival time, dose: 150.0 mg/kg/injection, schedule: Q01DX009 (ip), vehicle: saline) and 93 % of control (endpoint: mean survival time, dose: 150.0 mg/kg/injection, schedule: Q04DX003 (ip), vehicle: saline).
`Cc1cc(C)c(COCc2cc(C)c(C)cc2C)cc1C`: the T/C is, setting by setting: (endpoint: mean survival time, dose: 25.0 mg/kg/injection, schedule: Q01DX009 (ip), vehicle: water) 97 % of control; (endpoint: mean survival time, dose: 50.0 mg/kg/injection, schedule: Q01DX009 (ip), vehicle: water) 86 % of control; (endpoint: mean survival time, dose: 100.0 mg/kg/injection, schedule: Q01DX009 (ip), vehicle: water) 92 % of control; (endpoint: mean survival time, dose: 200.0 mg/kg/injection, schedule: Q01DX009 (ip), vehicle: water) 101 % of control; (endpoint: mean survival time, dose: 400.0 mg/kg/injection, schedule: Q01DX009 (ip), vehicle: water) 103 % of control.
As to `CC(C)(Nc1nc2c(ncn2C2OC(CO)C(O)C2O)c(=O)[nH]1)P(=O)(O)O` (stereo unspecified), the T/C (endpoint: median survival time, dose: 12.5 mg/kg/injection, schedule: Q01DX005 (ip), vehicle: water) was 105 % of control; the T/C (endpoint: median survival time, dose: 25.0 mg/kg/injection, schedule: Q01DX005 (ip), vehicle: water) was 103 % of control; the T/C (endpoint: median survival time, dose: 50.0 mg/kg/injection, schedule: Q01DX005 (ip), vehicle: water) was 108 % of control; the T/C (endpoint: median survival time, dose: 100.0 mg/kg/injection, schedule: Q01DX005 (ip), vehicle: water) was 105 % of control.
For `O=c1[nH]c(=O)n(C2OC(CO)C(O)C2O)o1` (stereo unspecified), the T/C reads like this: (endpoint: mean survival time, dose: 12.5 mg/kg/injection, schedule: Q01DX005 (ip), vehicle: water) 93 % of control; (endpoint: mean survival time, dose: 25.0 mg/kg/injection, schedule: Q01DX005 (ip), vehicle: water) 101 % of control; (endpoint: mean survival time, dose: 50.0 mg/kg/injection, schedule: Q01DX005 (ip), vehicle: water) 90 % of control; (endpoint: mean survival time, dose: 100.0 mg/kg/injection, schedule: Q01DX005 (ip), vehicle: water) 98 % of control; (endpoint: mean survival time, dose: 200.0 mg/kg/injection, schedule: Q01DX005 (ip), vehicle: water) 96 % of control.
`O=S1(=O)CC(Br)C(Br)C1` (stereo unspecified): the T/C was 88 % of control (endpoint: mean survival time, dose: 50.0 mg/kg/injection, schedule: Q01DX009 (ip), vehicle: saline with Tween-80); 100 % of control under setting [1]; 106 % of control under setting [2]; 110 % of control under setting [3]; 107 % of control under setting [4]; 100 % of control under setting [5].
Take `CN(Cc1ccc(Cl)cc1)N=Nc1ccc(C#N)cc1`: the T/C by setting is: under setting [1], 98 % of control; under setting [3], 107 % of control; (endpoint: mean survival time, dose: 400.0 mg/kg/injection, schedule: Q01DX009 (ip), vehicle: saline with Tween-80) 93 % of control.
Regarding `CN(C)CCNc1ccc(CO)c2sc3ccc(O)cc3c(=O)c12`, the T/C (endpoint: median survival time, dose: 25.0 mg/kg/injection, schedule: Q01DX005 (ip), vehicle: saline with Tween-80) is 107 % of control; the T/C (endpoint: median survival time, dose: 72.0 mg/kg/injection, schedule: Q01DX005 (ip), vehicle: saline with Tween-80) is 155 % of control; the T/C (endpoint: median survival time, dose: 100.0 mg/kg/injection, schedule: Q01DX005 (ip), vehicle: saline with Tween-80) is 212 % of control; the T/C (endpoint: median survival time, dose: 120.0 mg/kg/injection, schedule: Q01DX005 (ip), vehicle: saline with Tween-80) is 183 % of control; the T/C (endpoint: median survival time, dose: 333.33 mg/kg/injection, schedule: Q01DX005 (ip), vehicle: saline with Tween-80) is 112 % of control; the T/C (endpoint: median survival time, dose: 400.0 mg/kg/injection, schedule: Q01DX005 (ip), vehicle: saline with Tween-80) is 113 % of control and 97 % of control. Besides, the T/C (endpoint: median survival time, dose: 555.55 mg/kg/injection, schedule: Q01DX005 (ip), vehicle: saline with Tween-80) is 111 % of control.
Take `CC(C)(Nc1ccccc1)c1cccs1`: the T/C was 101 % of control under setting [2], 97 % of control under setting [4] and 112 % of control under setting [5].
In the case of `C/C(Cl)=C\CNc1ncnc2c1ncn2C1OC(CO)C(O)C1O` (stereo unspecified), the T/C (endpoint: mean survival time, dose: 6.25 mg/kg/injection, schedule: Q01DX005 (ip), vehicle: distilled water + Tween-80) was 103 % of control; the T/C (endpoint: mean survival time, dose: 12.5 mg/kg/injection, schedule: Q01DX005 (ip), vehicle: distilled water + Tween-80) was 101 % of control; the T/C (endpoint: mean survival time, dose: 25.0 mg/kg/injection, schedule: Q01DX005 (ip), vehicle: distilled water + Tween-80) was 91 % of control; the T/C (endpoint: mean survival time, dose: 50.0 mg/kg/injection, schedule: Q01DX005 (ip), vehicle: distilled water + Tween-80) was 100 % of control; the T/C (endpoint: mean survival time, dose: 100.0 mg/kg/injection, schedule: Q01DX005 (ip), vehicle: distilled water + Tween-80) is 101 % of control.
As for `CC(O)c1cccc([N+](=O)[O-])c1` (stereo unspecified), the T/C is 93 % of control (endpoint: mean survival time, dose: 100.0 mg/kg/injection, schedule: Q01DX001 (ip), vehicle: saline with Tween-80); 97 % of control (endpoint: mean survival time, dose: 200.0 mg/kg/injection, schedule: Q01DX001 (ip), vehicle: saline with Tween-80); 93 % of control (endpoint: mean survival time, dose: 400.0 mg/kg/injection, schedule: Q01DX001 (ip), vehicle: saline with Tween-80).
Turning to `CCCCCCCCCCCC[Si](CCCCCCCCCCCC)(c1ccccc1)c1ccccc1`, the T/C reads like this: under setting [2], 103 % of control; under setting [4], 93 % of control; under setting [5], 93 % of control.
Regarding `C=CC[As](=O)(O)CCC`, the T/C is 100 % of control (endpoint: mean survival time, dose: 25.0 mg/kg/injection, schedule: Q01DX009 (ip), vehicle: saline); 98 % of control (endpoint: mean survival time, dose: 50.0 mg/kg/injection, schedule: Q01DX009 (ip), vehicle: saline); 114 % of control under setting [1]; 97 % of control (endpoint: mean survival time, dose: 100.0 mg/kg/injection, schedule: Q01DX009 (ip), vehicle: saline).

The values above are taken from PubChem BioAssay AID256 (DTP/NCI, 2004).
